The source of these data is ChEMBL document CHEMBL6127108, “Triantaspirols A-C and Paraphaeolactone Cs from Paraphaeosphaeria sp. KT4192: Sensitivity of CP3 in Distinguishing Close NMR Signals” (J Nat Prod, 2024).

The subject of the experiment is COLO 201. The experiment is described as follows: Cytotoxicity against human COLO201 cells assessed as inhibition of cell growth incubated for 24 hrs by WST-1 assay. The format is functional, cell-based. As to conditions: for IC50: COLO 201, 24 h. For orientation: Tetrazolium assays rely on reduction of a dye to a coloured formazan, in cell work by metabolically active cells.

SMILES strings stand for the structures. Activity calls are given as the source filed them. The rule behind the calls is not given here.

For orientation: IC50 means the midpoint of a concentration-inhibition curve. `Cc1ccc(O)c2c1C(=O)[C@@](C)(Oc1ccc(O)c3c1[C@@H](O)CCC31Oc3cccc4cccc(c34)O1)O2`: the IC50 turned out to be 17 µM. As to `C[C@@H]1C=C[C@@]2(O)[C@@H]3OC(=O)[C@@](O)([C@H]13)[C@@H]2Oc1ccc(O)c2c1C(=O)CCC21Oc2cccc3cccc(c23)O1`, the result was inactive. On to `Cc1ccc(O)c2c1C(=O)[C@](C)(Oc1ccc(O)c3c1[C@@H](O)CCC31Oc3cccc4cccc(c34)O1)O2`, for which the IC50 is 23 µM. Still for that read-out and setting: as for `CC[C@@]1(O)C(=O)OCc2c1cc1n(c2=O)Cc2cc3ccccc3nc2-1` [CAMPTOTHECIN], the figure is 34 µM. As for `Oc1ccc(O)c2c1[C@@H](O)CCC21Oc2cccc3cccc(c23)O1`, the outcome was inactive.
